Test results published in paper PMC4503722, “Novel Phenotypic Outcomes Identified for a Public Collection of Approved Drugs from a Publicly Accessible Panel of Assays” (PLoS ONE, 2015).
Where two headings read alike, the source gives them in different places.

Columns and labels:
[1] = system: INS-1E cells; assay: cells; type: cell-based, rat; details: for EC50: Rattus norvegicus, INS-1E
[2] = system: INS-1E cells; type: cell-based, rat; details: for insulin secretion at low glucose (in words): INS-1E;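 as to 5mMGluc INS1E SecretionMod IC50/EC50: secreted insulin quantified by homogeneous immunoassay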
[3] = system: endothelial tube formation in co-cultures of ECFCs and ADSCs treated with VEGF; assay: cells; type: cell-based, human; details: for IC50: Homo sapiens, Table 2, primary assay tube area, 20 = no response in concentration-response, 20.1 = inactive in single concentration testing, read-out: Anti-Angio IC50
[4] = system: nuclear β-catenin in C2C12 cells; assay: cells; type: cell-based; details: for EC50: Mus musculus, C2C12, Table 2, C2C12, 20 / 20.1 coded, read-out: Wnt pot. EC50
[5] = system: alkaline phosphatase (ALP) activity in C2C12 cells; type: cell-based; details: assay number 6; concentration response
[6] = system: NCI-H716 cells; assay: cells; type: cell-based, Human; details: for EC50: Homo sapiens, NCI-H716, read-out: GLP1 sec. EC50
[7] = system: STC-1 cell line; type: cell-based, mouse; details: assay number 13
[8] = system: HeLa cells; assay: cells; type: cell-based
[9] = system: DLD-1; assay: cells; type: cell-based; details: for IC50: Homo sapiens, DLD-1, 72 h, Table 2, 72 h, Cell TiterGlo, non-adherent, 20 coded, read-out: DLD-1 viab. IC50
[10] = system: SW480; assay: cells; type: cell-based; details: for IC50: Homo sapiens
[11] = system: HCT116; assay: cells; type: cell-based; details: basal; for IC50: Homo sapiens, HCT-116, 72 h, read-out: HCT-116 viab. IC50, Table 2, 72 h, Cell TiterGlo, non-adherent, 20 coded
[12] = system: HCT116 cells treated with a GSK3β inhibitor; assay: cells; type: cell-based; details: for IC50: Homo sapiens, HCT-116, read-out: HCT-116 (GSK3β) viab. IC50, Table 2, GSK3β inhibitor LY2090314 20 nM, 72 h, Cell TiterGlo, 20 coded
[13] = system: Colo320; assay: cells; type: cell-based; details: assay number 27; basal
[14] = system: HT-29; assay: cells; type: cell-based; details: assay number 28; basal
[15] = system: SNU-C1; assay: cells; type: cell-based; details: assay number 30; basal
[16] = molecular target: T1, hp70S6K1 (RPS6KB1) (Homo sapiens, UniProt P23443); assay: Cerep LANCE kinase assay hp70S6K1 (S1 assay 31); type: biochemical; details: assay number 31
T1 construct: purchased Cerep (LANCE kinase assay platform, contract assay)
T1 sequence (P23443 whole entry): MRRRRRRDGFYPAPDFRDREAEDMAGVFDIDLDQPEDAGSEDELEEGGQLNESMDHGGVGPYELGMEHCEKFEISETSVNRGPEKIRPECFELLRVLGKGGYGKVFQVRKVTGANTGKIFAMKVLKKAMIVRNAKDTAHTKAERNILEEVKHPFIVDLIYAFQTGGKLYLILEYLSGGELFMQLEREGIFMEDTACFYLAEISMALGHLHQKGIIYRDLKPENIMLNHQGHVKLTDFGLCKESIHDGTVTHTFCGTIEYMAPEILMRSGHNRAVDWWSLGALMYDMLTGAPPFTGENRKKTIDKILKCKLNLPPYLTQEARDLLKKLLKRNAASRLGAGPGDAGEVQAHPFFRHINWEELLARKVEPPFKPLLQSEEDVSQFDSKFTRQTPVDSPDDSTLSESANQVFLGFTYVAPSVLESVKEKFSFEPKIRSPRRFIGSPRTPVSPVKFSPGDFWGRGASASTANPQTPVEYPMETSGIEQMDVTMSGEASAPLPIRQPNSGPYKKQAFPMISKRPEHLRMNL

[17] = molecular target: T2, hKDR (Homo sapiens, UniProt P35968); assay: Cerep LANCE kinase assay hKDR (S1 assay 32); type: biochemical; details: assay number 32
T2 construct: purchased Cerep (LANCE kinase assay platform, contract assay)
T2 sequence (P35968 20-1356): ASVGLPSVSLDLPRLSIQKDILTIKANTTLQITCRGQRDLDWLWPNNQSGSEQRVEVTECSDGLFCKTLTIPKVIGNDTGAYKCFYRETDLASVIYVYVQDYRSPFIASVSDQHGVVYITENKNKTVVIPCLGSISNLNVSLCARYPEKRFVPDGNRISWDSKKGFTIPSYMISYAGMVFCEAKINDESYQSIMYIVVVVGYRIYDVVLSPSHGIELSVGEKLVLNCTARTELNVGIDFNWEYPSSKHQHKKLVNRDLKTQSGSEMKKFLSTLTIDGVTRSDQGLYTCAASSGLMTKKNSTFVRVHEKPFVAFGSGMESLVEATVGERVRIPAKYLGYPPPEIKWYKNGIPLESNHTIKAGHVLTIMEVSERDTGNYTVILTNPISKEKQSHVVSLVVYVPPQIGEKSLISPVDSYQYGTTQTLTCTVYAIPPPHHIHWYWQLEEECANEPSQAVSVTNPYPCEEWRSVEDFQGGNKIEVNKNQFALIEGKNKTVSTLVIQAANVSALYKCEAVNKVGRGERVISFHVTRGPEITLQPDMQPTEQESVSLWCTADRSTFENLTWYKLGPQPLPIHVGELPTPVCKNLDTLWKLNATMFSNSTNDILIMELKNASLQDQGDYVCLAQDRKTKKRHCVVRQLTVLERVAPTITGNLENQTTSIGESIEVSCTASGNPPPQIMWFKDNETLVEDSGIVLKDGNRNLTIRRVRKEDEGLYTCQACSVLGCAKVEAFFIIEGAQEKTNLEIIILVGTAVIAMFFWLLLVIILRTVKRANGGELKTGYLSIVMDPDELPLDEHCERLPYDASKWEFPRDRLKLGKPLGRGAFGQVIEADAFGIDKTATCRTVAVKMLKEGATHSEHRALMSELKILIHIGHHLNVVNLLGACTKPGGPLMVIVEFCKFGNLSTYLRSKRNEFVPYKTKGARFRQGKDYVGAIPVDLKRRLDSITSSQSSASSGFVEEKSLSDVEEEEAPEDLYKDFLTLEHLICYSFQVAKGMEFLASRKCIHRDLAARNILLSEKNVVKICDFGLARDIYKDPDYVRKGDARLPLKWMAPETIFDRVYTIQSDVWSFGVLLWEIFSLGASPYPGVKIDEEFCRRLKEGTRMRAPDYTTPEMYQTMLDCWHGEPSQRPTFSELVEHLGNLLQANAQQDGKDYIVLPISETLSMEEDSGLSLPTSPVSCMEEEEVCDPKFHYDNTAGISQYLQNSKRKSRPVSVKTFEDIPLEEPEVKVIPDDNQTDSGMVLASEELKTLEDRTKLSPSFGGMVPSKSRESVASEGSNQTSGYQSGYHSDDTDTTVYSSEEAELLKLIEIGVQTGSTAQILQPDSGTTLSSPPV

[18] = molecular target: T3, hJAK2 (Homo sapiens, UniProt O60674); assay: Cerep LANCE kinase assay hJAK2 (S1 assay 33); type: biochemical; details: assay number 33
T3 construct: purchased Cerep (LANCE kinase assay platform, contract assay)
T3 sequence (O60674 whole entry): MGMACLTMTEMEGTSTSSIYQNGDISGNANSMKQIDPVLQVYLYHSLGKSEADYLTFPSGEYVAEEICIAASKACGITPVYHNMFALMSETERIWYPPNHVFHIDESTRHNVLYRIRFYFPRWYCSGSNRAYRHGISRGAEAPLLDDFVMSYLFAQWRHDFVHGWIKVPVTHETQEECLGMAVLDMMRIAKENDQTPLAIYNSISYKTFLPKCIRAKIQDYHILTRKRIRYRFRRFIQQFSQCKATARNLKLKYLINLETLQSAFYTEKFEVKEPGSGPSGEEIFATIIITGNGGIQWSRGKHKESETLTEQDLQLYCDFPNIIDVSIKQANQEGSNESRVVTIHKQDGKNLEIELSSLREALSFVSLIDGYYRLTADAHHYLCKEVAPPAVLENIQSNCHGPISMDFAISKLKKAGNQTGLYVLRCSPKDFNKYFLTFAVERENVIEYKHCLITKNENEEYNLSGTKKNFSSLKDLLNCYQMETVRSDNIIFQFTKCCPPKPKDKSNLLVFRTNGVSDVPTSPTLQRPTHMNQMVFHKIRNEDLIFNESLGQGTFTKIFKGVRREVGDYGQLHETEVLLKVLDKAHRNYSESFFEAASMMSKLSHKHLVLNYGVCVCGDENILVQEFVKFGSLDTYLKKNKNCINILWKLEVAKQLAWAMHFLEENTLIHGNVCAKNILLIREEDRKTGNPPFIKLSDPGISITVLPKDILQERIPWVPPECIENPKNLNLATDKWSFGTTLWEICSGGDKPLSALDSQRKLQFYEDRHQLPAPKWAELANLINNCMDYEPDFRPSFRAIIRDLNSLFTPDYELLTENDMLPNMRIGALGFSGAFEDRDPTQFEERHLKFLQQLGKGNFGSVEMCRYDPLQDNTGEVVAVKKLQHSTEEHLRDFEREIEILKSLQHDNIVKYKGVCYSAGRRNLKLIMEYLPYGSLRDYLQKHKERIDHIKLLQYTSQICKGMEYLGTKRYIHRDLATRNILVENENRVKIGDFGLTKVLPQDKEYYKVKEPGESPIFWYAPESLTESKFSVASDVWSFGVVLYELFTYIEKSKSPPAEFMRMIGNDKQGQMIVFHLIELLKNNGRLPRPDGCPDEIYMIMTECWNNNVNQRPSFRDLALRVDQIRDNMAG

[19] = molecular target: T4, hGSK3b (Homo sapiens, UniProt P49841); assay: Cerep LANCE kinase assay hGSK3b (S1 assay 34); type: biochemical; details: assay number 34
T4 construct: purchased Cerep (LANCE kinase assay platform, contract assay)
T4 sequence (P49841 whole entry): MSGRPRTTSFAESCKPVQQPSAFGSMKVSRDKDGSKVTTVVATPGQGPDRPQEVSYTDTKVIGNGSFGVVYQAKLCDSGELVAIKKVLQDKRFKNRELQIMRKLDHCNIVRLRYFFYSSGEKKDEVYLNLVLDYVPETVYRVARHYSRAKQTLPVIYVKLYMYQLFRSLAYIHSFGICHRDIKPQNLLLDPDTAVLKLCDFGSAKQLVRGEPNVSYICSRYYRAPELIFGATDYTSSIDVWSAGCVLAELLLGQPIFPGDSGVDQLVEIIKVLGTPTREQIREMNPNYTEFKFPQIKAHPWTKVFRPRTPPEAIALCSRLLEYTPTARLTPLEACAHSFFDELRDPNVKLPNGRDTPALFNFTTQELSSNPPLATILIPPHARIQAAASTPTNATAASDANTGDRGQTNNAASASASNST

[20] = molecular target: T5, hFLT3 (Homo sapiens, UniProt P36888); assay: Cerep LANCE kinase assay hFLT3 (S1 assay 35); type: biochemical; details: assay number 35
T5 construct: purchased Cerep (LANCE kinase assay platform, contract assay)
T5 sequence (P36888 27-993): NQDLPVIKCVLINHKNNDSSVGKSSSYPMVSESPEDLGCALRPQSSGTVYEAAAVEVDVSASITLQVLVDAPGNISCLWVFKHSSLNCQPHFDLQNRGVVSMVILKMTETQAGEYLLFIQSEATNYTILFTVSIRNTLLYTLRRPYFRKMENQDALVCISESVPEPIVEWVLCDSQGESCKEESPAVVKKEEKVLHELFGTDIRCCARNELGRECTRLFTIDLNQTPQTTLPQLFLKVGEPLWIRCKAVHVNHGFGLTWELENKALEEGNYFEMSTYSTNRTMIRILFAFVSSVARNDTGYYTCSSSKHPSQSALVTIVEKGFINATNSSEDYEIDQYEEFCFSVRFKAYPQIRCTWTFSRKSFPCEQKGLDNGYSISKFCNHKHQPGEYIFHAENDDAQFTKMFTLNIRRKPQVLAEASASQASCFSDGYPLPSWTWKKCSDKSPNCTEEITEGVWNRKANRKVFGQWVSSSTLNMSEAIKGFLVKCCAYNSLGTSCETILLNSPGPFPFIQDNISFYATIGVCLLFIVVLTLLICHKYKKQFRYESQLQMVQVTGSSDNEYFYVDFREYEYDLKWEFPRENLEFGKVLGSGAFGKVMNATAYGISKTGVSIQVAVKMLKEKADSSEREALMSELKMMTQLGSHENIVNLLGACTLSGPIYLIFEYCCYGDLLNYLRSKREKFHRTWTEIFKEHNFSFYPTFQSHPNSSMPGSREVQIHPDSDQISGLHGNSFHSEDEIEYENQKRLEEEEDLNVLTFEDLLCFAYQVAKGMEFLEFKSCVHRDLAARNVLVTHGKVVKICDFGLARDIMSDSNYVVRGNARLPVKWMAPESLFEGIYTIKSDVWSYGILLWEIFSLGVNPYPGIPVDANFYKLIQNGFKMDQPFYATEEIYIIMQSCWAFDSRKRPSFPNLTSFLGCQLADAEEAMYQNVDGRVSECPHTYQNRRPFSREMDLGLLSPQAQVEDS

[21] = system: ECFC/ADSC co-culture cell nuclei number
[22] = 5 mM glucose, read-out: insulin secretion EC50
[23] = SW480, 72 h, Table 2, 72 h, Cell TiterGlo, non-adherent, 20 coded, read-out: SW480 viab. IC50

## CN(C)CCOC(c1ccc(Cl)cc1)c1ccccn1 (stereo not shown) [NCGC00166141-06]
[1]; assay number 8, 5 mM glucose
  5mMGluc_INS1E SecretionMod IC50/EC50: 21.3759 µM
[2]; assay number 9, 0.1 mM glucose
  0.1mMGluc_INS1E SecretionMod Act IC50/EC50: > 33.33 µM

## CC(C)(Cc1c[nH]c2ccccc12)NCC(O)COc1ccccc1C#N (stereo not shown) [NCGC00167817-02]
[1]; assay number 8, 5 mM glucose
  5mMGluc_INS1E SecretionMod IC50/EC50: 15.0119 µM
[2]; assay number 9, 0.1 mM glucose
  0.1mMGluc_INS1E SecretionMod Act IC50/EC50: > 33.33 µM

## CN(C)CCC[C@@]1(c2ccc(F)cc2)OCc2cc(C#N)ccc21.O=C(O)C(=O)O [NCGC00178555-02]
[1]; assay number 8, 5 mM glucose
  5mMGluc_INS1E SecretionMod IC50/EC50: 5.447 µM
[2]; assay number 9, 0.1 mM glucose
  0.1mMGluc_INS1E SecretionMod Act IC50/EC50: > 33.33 µM

## CCCCN1CCCCC1C(=O)Nc1c(C)cccc1C (stereo not shown) [NCGC00178579-04]
[1]; assay number 8, 5 mM glucose
  5mMGluc_INS1E SecretionMod IC50/EC50: 27.1706 µM
[2]; assay number 9, 0.1 mM glucose
  0.1mMGluc_INS1E SecretionMod Act IC50/EC50: > 33.33 µM

## O=C(NN1CCCC1)NS(=O)(=O)c1ccc(Cl)cc1 [NCGC00182989-01]
[1]
  5mMGluc_INS1E SecretionMod IC50/EC50: 14.8718 µM
[2]
  0.1mMGluc_INS1E SecretionMod Act IC50/EC50: > 33.33 µM

## CC(C)(C)c1nnc(NS(=O)(=O)c2ccccc2)s1 [NCGC00182991-01]
[1]; assay number 8, 5 mM glucose
  5mMGluc_INS1E SecretionMod IC50/EC50: 13.1318 µM
[2]; assay number 9, 0.1 mM glucose
  0.1mMGluc_INS1E SecretionMod Act IC50/EC50: > 33.33 µM

## Oc1ccc(CCNCCCCCCNCCc2ccccc2)cc1O [NCGC00184998-02]
[1]; assay number 8, 5 mM glucose
  5mMGluc_INS1E SecretionMod IC50/EC50: > 33.33 µM
[2]; assay number 9, 0.1 mM glucose
  0.1mMGluc_INS1E SecretionMod Act IC50/EC50: > 33.33 µM

## Cc1ccc([N+](=O)[O-])[c]2c1[O][Hg]2 [NCGC00249897-01]
[3]
  VEGF_ADSC\ECFC Angio CD31 TubeArea IC50/EC50: 0.6678 µM
[4]; assay number 5, concentration response
  WntCondMedia_bCatenin C2C12 IC50/EC50: 1.5133 µM
[5]
  WntCondMedia_Alk Phos C2C12 IC50/EC50: 0.1552 µM
[1]; assay number 8, 5 mM glucose
  5mMGluc_INS1E SecretionMod IC50/EC50: > 33.33 µM
[6]; assay number 12
  hNCI-H716 GLP1 Secretion IC50/EC50: 9.871 µM
[7]
  mSTC-1 GLP1 Secretion IC50/EC50: 0.0972 µM
[8]; assay number 14, 2N
  Hela CellCycMod PI 2N IC50/EC50: > 10 µM
[8]; assay number 16, 4N
  Hela CellCycMod PI 4N IC50/EC50: > 10 µM
[8]; assay number 17, MI
  Hela CellCycMod PI MI IC50/EC50: 1.2179 µM
[8]; assay number 18, cell number
  Hela CellCycMod PI Cell Number IC50/EC50: 0.3851 µM
[9]; assay number 23, basal
  Basal_Viability ATP DLD-1 IC50/EC50: 1.6221 µM
[10]; assay number 24, basal
  Basal_Viability ATP SW480 IC50/EC50: 1.1294 µM
[11]; assay number 25
  Basal_Viability ATP HCT116 IC50/EC50: 2.8299 µM
[12]; assay number 26, GSK3b inhibitor pretreated
  GSK3b inh pretreated_Viability ATP HCT116 IC50/EC50: > 2.2222 µM
[13]
  Basal_Viability ATP Colo 320 IC50/EC50: 0.935 µM
[14]
  Basal_Viability ATP HT-29 IC50/EC50: 1.4429 µM
[15]
  Basal_Viability ATP SNU-C1 IC50/EC50: 0.2022 µM
[16]
  hp70S6K1 LANCE IC50/EC50: > 20 µM
[17]
  hKDR LANCE IC50/EC50: 16.8 µM
[18]
  hJAK2 LANCE IC50/EC50: > 20 µM
[19]
  hGSK3b LANCE IC50/EC50: 8.37 µM
[20]
  hFLT3 LANCE IC50/EC50: 10.38 µM
[21]
  VEGF_ADSC\ECFC Angio Hoechst NucArea IC50/EC50: 1.087 µM

## Cl.Nc1c2c(nc3c1CCC3)CCCC2.O [NCGC00263455-01]
[1]; assay number 8, 5 mM glucose
  5mMGluc_INS1E SecretionMod IC50/EC50: 11.7012 µM
[2]; assay number 9, 0.1 mM glucose
  0.1mMGluc_INS1E SecretionMod Act IC50/EC50: > 33.33 µM

## Cc1cc2c(OCC(CNC(C)(C)C)OC(=O)c3ccccc3)cccc2[nH]1 (stereo not shown) [NCGC00263654-01]
[1]; assay number 8, 5 mM glucose
  5mMGluc_INS1E SecretionMod IC50/EC50: 14.6026 µM
[2]; assay number 9, 0.1 mM glucose
  0.1mMGluc_INS1E SecretionMod Act IC50/EC50: > 33.33 µM

## COc1ccc(Cl)cc1C(=O)NCCc1ccc(S(=O)(=O)NC(=O)NC2CCCCC2)cc1 [glibenclamide, reference compound]
[3]
  IC50: > 10 µM
[4]
  EC50: > 10 µM
[1]; read-out: Ins. sec. EC50
  EC50: 0.002 µM
[1]; read-out: Insulin Secretion
  EC50: 0.00247 µM
[1]; [22]
  EC50: 0.0025 µM
[2]; 0.1 mM glucose
  insulin secretion at low glucose (in words): stimulated insulin secretion at low glucose concentrations
[6]
  EC50: > 10 µM
[9]
  IC50: > 20 µM
[10]; [23]
  IC50: 2.9 µM
[10]; SW480, basal, SW480, read-out: Basal_Viability ATP SW480
  IC50: 2.92 µM
[11]
  IC50: > 20 µM
[12]
  IC50: > 20 µM

## CCOc1cc(CC(=O)N[C@@H](CC(C)C)c2ccccc2N2CCCCC2)ccc1C(=O)O [repaglinide, reference compound]
[3]
  IC50: > 10 µM
[4]
  EC50: > 10 µM
[1]; read-out: Ins. sec. EC50
  EC50: 0.03 µM
[1]; [22]
  EC50: 0.027 µM
[2]; 0.1 mM glucose
  insulin secretion at low glucose (in words): stimulated insulin secretion at low glucose concentrations
[6]
  EC50: > 10 µM
[8]; Table 2, HeLa, […], 20 / 20.1 coded
  G2/M IC50 / EC50: 20.1
[9]
  IC50: > 20 µM
[10]; [23]
  IC50: > 20 µM
[11]
  IC50: > 20 µM
[12]
  IC50: > 20 µM
